For data set [1], the target named is T1, Broad substrate specificity ATP-binding cassette transporter ABCG2 (Homo sapiens, UniProt Q9UNQ0).
T1 sequence (Q9UNQ0 whole entry): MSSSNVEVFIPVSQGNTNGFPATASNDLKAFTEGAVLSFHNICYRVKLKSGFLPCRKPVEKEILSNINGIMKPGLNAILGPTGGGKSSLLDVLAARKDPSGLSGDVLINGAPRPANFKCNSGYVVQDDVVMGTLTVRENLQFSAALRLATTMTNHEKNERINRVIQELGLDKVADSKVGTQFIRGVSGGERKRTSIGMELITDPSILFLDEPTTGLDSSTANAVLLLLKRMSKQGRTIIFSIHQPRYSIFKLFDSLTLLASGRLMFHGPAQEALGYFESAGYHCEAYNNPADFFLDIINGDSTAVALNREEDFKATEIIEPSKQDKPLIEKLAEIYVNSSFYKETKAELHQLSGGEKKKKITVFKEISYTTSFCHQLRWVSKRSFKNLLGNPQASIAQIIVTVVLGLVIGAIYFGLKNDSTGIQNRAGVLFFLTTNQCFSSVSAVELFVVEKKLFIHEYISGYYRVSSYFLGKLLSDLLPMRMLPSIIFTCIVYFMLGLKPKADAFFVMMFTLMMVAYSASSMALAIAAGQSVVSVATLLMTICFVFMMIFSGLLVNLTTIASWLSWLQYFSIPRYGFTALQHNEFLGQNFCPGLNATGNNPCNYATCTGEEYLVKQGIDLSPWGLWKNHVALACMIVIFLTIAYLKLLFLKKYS
The data set is described as follows: Reversal of ABCG2 (unknown origin)-mediated multidrug resistance transfected in dog MDCK-II-BCRP cells assessed as increase in SN-38-mediated cytotoxicity incubated for 72 hrs in presence of SN-38 by MTT assay. It is filed as cell-based.

The test system of the next data set is MCF7. The data set is described as follows: Cytotoxicity against MCT1 expressing human MCF7 cells assessed as inhibition of cell growth incubated for 72 hrs by MTT assay. It is filed as functional.

In the case of `COc1cccc(NC(=O)Cn2nc(C(=O)Nc3cccc(OC)c3)c3ccccc32)c1`, the EC50 entry in data set [1] is on record as “Not_active”.
With `O=C(Cn1nc(C(=O)Nc2cccnc2)c2ccccc21)Nc1ccc(Cl)cc1`, the GI50 (as a rule, the concentration giving 50% growth inhibition) with MCF7 came out at 10.8 µM.

(Values after ChEMBL document CHEMBL6109064, “Functional and structural polypharmacology of indazole-based privileged ligands to tackle the undruggability of membrane transporters” (Eur J Med Chem, 2025).)
